IC50 data for 20 molecules are collected here from patent publication US20250197372A1 (priority 2020, published 2025).

The structures appear in SMILES notation. Like-named read-outs stand apart in the source and are kept apart here.

This assay has as its target T1, recombinant alpha-glucosidase I (human full-length glucosidase I, Glu 1) (Homo sapiens, UniProt Q13724).
T1 construct: 6-His (C); made in house; host or cells: HEK-293T cells transduced with BacMam virus (virus raised in Sf9)
T1 sequence (Q13724 1-837): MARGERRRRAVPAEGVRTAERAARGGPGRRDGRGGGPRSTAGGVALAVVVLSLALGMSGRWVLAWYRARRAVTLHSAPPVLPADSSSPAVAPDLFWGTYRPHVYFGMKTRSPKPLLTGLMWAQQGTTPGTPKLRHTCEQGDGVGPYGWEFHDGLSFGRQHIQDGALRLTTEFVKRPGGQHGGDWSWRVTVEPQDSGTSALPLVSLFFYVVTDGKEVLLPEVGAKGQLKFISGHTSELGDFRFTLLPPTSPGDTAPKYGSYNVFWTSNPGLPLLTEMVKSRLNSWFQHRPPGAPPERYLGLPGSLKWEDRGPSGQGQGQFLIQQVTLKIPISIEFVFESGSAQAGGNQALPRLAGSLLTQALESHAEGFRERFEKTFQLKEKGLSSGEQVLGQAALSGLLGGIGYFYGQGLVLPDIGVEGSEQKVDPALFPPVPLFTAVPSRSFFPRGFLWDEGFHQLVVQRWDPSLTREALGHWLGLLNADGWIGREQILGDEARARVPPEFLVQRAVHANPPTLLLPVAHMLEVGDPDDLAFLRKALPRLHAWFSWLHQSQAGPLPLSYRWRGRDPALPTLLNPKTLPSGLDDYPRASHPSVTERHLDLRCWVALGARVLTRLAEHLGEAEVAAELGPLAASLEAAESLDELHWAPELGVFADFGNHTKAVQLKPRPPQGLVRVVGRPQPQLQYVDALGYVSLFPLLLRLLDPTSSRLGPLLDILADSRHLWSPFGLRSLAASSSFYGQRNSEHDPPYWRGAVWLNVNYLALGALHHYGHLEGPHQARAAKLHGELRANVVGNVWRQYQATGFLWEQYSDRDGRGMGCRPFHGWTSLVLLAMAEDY
Description: Alpha-glucosidase I assay (Amplex Red glucose detection, synthetic trisaccharide substrate). It counts as biochemical. The procedure, abridged: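 Human full-length glucosidase I, His-tagged, […] and Ni-purified. Enzyme preincubated with compound dilutions 60 min at 37° C, then synthetic trisaccharide substrate 90 min at 37° C; stopped with 1.5M Tris pH 8.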

[1] abbreviates: Glucosidase 1, read-out: Glu 1 IC50.

Turning to `O=Cc1cc(-c2ncccn2)ccc1NCCCCCCN1C[C@H](O)[C@@H](O)[C@H](O)[C@H]1CO` [Compound 1184, 5-(pyrimidin-2-yl)-2-({6-[(2R,3R,4R,5S)-3,4,5-trihydroxy-2-(hydroxymethyl)piperidin-1-yl]hexyl}amino)benzaldehyde], the IC50 (commonly the midpoint of a concentration-inhibition curve) under setting [1] was determined as 84 nM.
In the case of `[N-]=[N+]=Nc1ccc(NCCc2ccc(CCN3C[C@H](O)[C@@H](O)[C@H](O)[C@H]3CO)s2)c([N+](=O)[O-])c1` [Compound 1186, (2R,3R,4R,5S)-1-[2-(5-{2-[(4-azido-2-nitrophenyl)amino]ethyl}hiophen-2-yl)ethyl]-2-(hydroxymethyl)piperidine-3,4,5-triol], under setting [1], the concentration for half-maximal inhibition (IC50) was 3 nM.
Consider `[N-]=[N+]=Nc1ccc(NCCc2cncc(CCN3C[C@H](O)[C@@H](O)[C@H](O)[C@H]3CO)n2)c([N+](=O)[O-])c1` [Compound 1187, (2R,3R,4R,5S)-1-[2-(6-{2-[(4-azido-2-nitrophenyl)amino]ethyl}pyrazin-2-yl)ethyl]-2-(hydroxymethyl)piperidine-3,4,5-triol], for which the 50% inhibitory concentration (IC50) came out at 94 nM.
With `[N-]=[N+]=Nc1ccc(NCCc2nccc(CCN3C[C@H](O)[C@@H](O)[C@H](O)[C@H]3CO)n2)c([N+](=O)[O-])c1` [Compound 1188, (2R,3R,4R,5S)-1-[2-(2-{2-[(4-azido-2-nitrophenyl)amino]ethyl}pyrimidin-4-yl)ethyl]-2-(hydroxymethyl)piperidine-3,4,5-triol], under setting [1], the IC50 is 762 nM.
Still for that read-out and setting: with `[N-]=[N+]=Nc1ccc(NCCc2cnn(CCN3C[C@H](O)[C@@H](O)[C@H](O)[C@H]3CO)c2)c([N+](=O)[O-])c1` [Compound 1191, (2R,3R,4R,5S)-1-[2-(4-{2-[(4-azido-2-nitrophenyl)amino]ethyl}-1H-pyrazol-1-yl)ethyl]-2-(hydroxymethyl)piperidine-3,4,5-triol] the figure was 7550 nM.
Take `OC[C@@H]1[C@@H](O)[C@H](O)[C@@H](O)CN1CCCCCCNc1cc(Cl)cc(-c2cnccn2)c1` [Compound 1196, (2R,3R,4R,5S)-1-(6-{[3-chloro-5-(pyrazin-2-yl)phenyl]amino}hexyl)-2-(hydroxymethyl)piperidine-3,4,5-triol]: under setting [1], the IC50 was 105 nM.
Consider `COc1cc(NCCCCCCN2C[C@H](O)[C@@H](O)[C@H](O)[C@H]2CO)cc(-c2cnccn2)c1` [Compound 1197, (2R,3R,4R,5S)-2-(hydroxymethyl)-1-(6-{[3-methoxy-5-(pyrazin-2-yl)phenyl]amino}hexyl)piperidine-3,4,5-triol], for which the IC50 under setting [1] is 140 nM.
Same read-out and setting: in the case of `OC[C@@H]1[C@@H](O)[C@H](O)[C@@H](O)CN1CCCCCCNc1ccc(-c2cnccn2)cc1Cl` [Compound 1198, (2R,3R,4R,5S)-1-(6-{[2-chloro-4-(pyrazin-2-yl)phenyl]amino}hexyl)-2-(hydroxymethyl)piperidine-3,4,5-triol] it was 12 nM; in that of `COc1cc(-c2cnccn2)ccc1NCCCCCCN1C[C@H](O)[C@@H](O)[C@H](O)[C@H]1CO` [Compound 1199, (2R,3R,4R,5S)-2-(hydroxymethyl)-1-(6-{[2-methoxy-4-(pyrazin-2-yl)phenyl]amino}hexyl)piperidine-3,4,5-triol], 77 nM.
For the molecule `[N-]=[N+]=Nc1ccc(NCCc2ccc(CCN3C[C@H](O)[C@@H](O)[C@H](O)[C@H]3CO)cc2)c([N+](=O)[O-])c1` [Compound 1200, (2R,3R,4R,5S)-1-[2-(4-{2-[(4-azido-2-nitrophenyl)amino]ethyl}phenyl)ethyl]-2-(hydroxymethyl)piperidine-3,4,5-triol], the concentration for half-maximal inhibition (IC50) under setting [1] was 31 nM.
On the same count and under the same terms, with `OC[C@@H]1[C@@H](O)[C@H](O)[C@@H](O)CN1CCCCCCNc1ccc(-c2cccnn2)cc1Cl` [Compound 1202, (2R,3R,4R,5S)-1-(6-{[2-chloro-4-(pyridazin-3-yl)phenyl]amino}hexyl)-2-(hydroxymethyl)piperidine-3,4,5-triol] the figure was < 1 nM; with `OC[C@@H]1[C@@H](O)[C@H](O)[C@@H](O)CN1CCCCCCNc1ccc(-c2ncco2)cc1Cl` [Compound 1203, (2R,3R,4R,5S)-1-(6-{[2-chloro-4-(1,3-oxazol-2-yl)phenyl]amino}hexyl)-2-(hydroxymethyl)piperidine-3,4,5-triol], 3 nM.
The same measure, in the same setting: with `COc1cc(-c2ncco2)ccc1NCCCCCCN1C[C@H](O)[C@@H](O)[C@H](O)[C@H]1CO` [Compound 1207, (2R,3R,4R,5S)-2-(hydroxymethyl)-1-(6-{[2-methoxy-4-(1,3-oxazol-2-yl)phenyl]amino}hexyl)piperidine-3,4,5-triol] the figure was 118 nM.
Regarding `[N-]=[N+]=Nc1ccc(NCC/C=C/CCN2C[C@H](O)[C@@H](O)[C@H](O)[C@H]2CO)c([N+](=O)[O-])c1` [Compound 1260, (2R,3R,4R,5S)-1-[(3E)-6-[(4-azido-2-nitrophenyl)amino]hex-3-en-1-yl]-2-(hydroxymethyl)piperidine-3,4,5-triol], the IC50 came to 136 nM.
The same measure, in the same setting: in the case of `O=[N+]([O-])c1cc(CCO)ccc1NCCCCCCN1C[C@H](O)[C@@H](O)[C@H](O)[C@H]1CO` [Compound 1292, (2R,3R,4R,5S)-1-(6-{[4-(2-hydroxyethyl)-2-nitrophenyl]amino}hexyl)-2-(hydroxymethyl)piperidine-3,4,5-triol] it was 157 nM.
The same measure, in the same setting: with `CS(=O)(=O)Nc1ccc(NCCCCCCN2C[C@H](O)[C@@H](O)[C@H](O)[C@H]2CO)c([N+](=O)[O-])c1` [Compound 1300, N-[3-nitro-4-({6-[(2R,3R,4R,5S)-3,4,5-trihydroxy-2-(hydroxy-methyl)piperidin-1-yl]hexyl}amino)phenyl]methanesulfonamide] the figure was 157 nM; with `COCCc1ccc(CCCCCN2C[C@H](O)[C@@H](O)[C@H](O)[C@H]2CO)cc1` [Compound 1307, (2R,3R,4R,5S)-2-(hydroxymethyl)-1-{5-[4-(2-methoxyethyl)phenyl]pentyl}piperidine-3,4,5-triol], 1160 nM; with `Cc1cc(-c2ccco2)ccc1NCc1ccc(CN2C[C@H](O)[C@@H](O)[C@H](O)[C@H]2CO)cc1` [Compound 1324, (2R,3R,4R,5S)-1-{[4-({[4-(furan-2-yl)-2-methylphenyl]amino}methyl)phenyl]methyl}-2-(hydroxymethyl)piperidine-3,4,5-triol], < 1 nM.
For the molecule `Cc1cc(NCc2cccc(CN3C[C@H](O)[C@@H](O)[C@H](O)[C@H]3CO)n2)cc(-c2ccc[nH]2)c1` [Compound 1335, (2R,3R,4R,5S)-2-(hydroxymethyl)-1-{[6-({[3-methyl-5-(1H-pyrrol-2-yl)phenyl]amino}methyl)pyridin-2-yl]methyl}piperidine-3,4,5-triol], the concentration for half-maximal inhibition (IC50) worked out at 966 nM.
Turning to `Cc1nc2cc(-c3ncccn3)ccc2n1CCCCCCN1C[C@H](O)[C@@H](O)[C@H](O)[C@H]1CO` [Compound 1339, (2R,3R,4R,5S)-2-(hydroxymethyl)-1-{6-[2-methyl-5-(pyrimidin-2-yl)-1H-1,3-benzodiazol-1-yl]hexyl}piperidine-3,4,5-triol], the 50% inhibitory concentration (IC50) amounted to 78 nM.
